From ChEMBL document CHEMBL5385944, “Hydrazyl hydroxycoumarins as new potential conquerors towards Pseudomonas aeruginosa” (Bioorg Med Chem Lett, 2024)
In brackets after ≈: the same amount, converted by molar mass. Activity calls are given as the source filed them. The rule behind the calls is not given here.

How the values were obtained:
Staphylococcus aureus [1] = assay: Antibacterial activity against methicillin resistant Staphylococcus aureus assessed as reduction in bacterial growth by CLSI protocol based method; format: functional
Staphylococcus aureus [2] = assay: Antibacterial activity against methicillin resistant Staphylococcus aureus 43300 assessed as reduction in bacterial growth by CLSI protocol based method; format: functional
Enterococcus faecalis = assay: Antibacterial activity against Enterococcus faecalis assessed as reduction in bacterial growth by CLSI protocol based method; format: functional
Staphylococcus aureus [3] = assay: Antibacterial activity against Staphylococcus aureus ATCC 25923 assessed as reduction in bacterial growth by CLSI protocol based method; format: functional
Staphylococcus aureus [4] = assay: Antibacterial activity against Staphylococcus aureus ATCC 29213 assessed as reduction in bacterial growth by CLSI protocol based method; format: functional
Klebsiella pneumoniae = assay: Antibacterial activity against Klebsiella pneumoniae assessed as reduction in bacterial growth by CLSI protocol based method; format: functional
Pseudomonas aeruginosa [5] = assay: Antibacterial activity against Pseudomonas aeruginosa assessed as reduction in bacterial growth by CLSI protocol based method; format: functional
Pseudomonas aeruginosa [6] = assay: Antibacterial activity against Pseudomonas aeruginosa ATCC 27853 assessed as reduction in bacterial growth by CLSI protocol based method; format: functional
Pseudomonas aeruginosa [7] = assay: Antibacterial activity against Pseudomonas aeruginosa ATCC 10104 assessed as reduction in bacterial growth by CLSI protocol based method; format: functional
Pseudomonas aeruginosa [8] = assay: Antibacterial activity against Pseudomonas aeruginosa ATCC 90027 assessed as reduction in bacterial growth by CLSI protocol based method; format: functional
Acinetobacter baumannii = assay: Antibacterial activity against Acinetobacter baumannii assessed as reduction in bacterial growth by CLSI protocol based method; format: functional
Escherichia coli = assay: Antibacterial activity against Escherichia coli ATCC 25922 assessed as reduction in bacterial growth by CLSI protocol based method; format: functional
Pseudomonas aeruginosa [9] = assay: Induction of drug resistance in Pseudomonas aeruginosa ATCC 27853 measured within 17 passages; format: functional
[10] = Hemolytic activity in human RBC assessed as hemolysis at 256 times MIC measured after 8 hrs relative to control; format: toxicity, cell-based, Erythrocyte; conditions: red blood cells (erythrocytes), read-out: Activity
Erythrocyte = assay: Hemolytic activity against human RBC assessed as effect on cell morphology at 32 times MIC measured after 8 hrs by fluorescence microscopic analysis; format: toxicity, cell-based
NCM460 [11] = assay: Cytotoxicity against human NCM460 cells assessed as reduction in cell viability at 25 ug/ml measured after 24 hrs by CCK-8 method relative to control; format: toxicity, cell-based; conditions: ncm460, 24 h, at 25 µg/mL
NCM460 [12] = assay: Cytotoxicity against human NCM460 cells assessed as effect on cell surface damage at 25 ug/ml measured after 24 hrs by microscope based analysis; format: toxicity; conditions: ncm460, 24 h, dose 25 µg/ml
Cell membrane [13] = assay: Disruption of outer membrane integrity in Pseudomonas aeruginosa ATCC 27853 assessed as increase in fluorescence intensity at 4 to 8 times MIC; format: subcellular; conditions: time <= 80.0 min, TDE = time-dependent effect
Cell membrane [14] = assay: Disruption of outer membrane integrity in Pseudomonas aeruginosa ATCC 27853 assessed as increase in fluorescence intensity measured after 8 hrs; format: subcellular
Cell membrane [15] = assay: Disruption of inner membrane integrity in Pseudomonas aeruginosa ATCC 27853 assessed as increase in fluorescence intensity at 4 to 8 times MIC; format: subcellular; conditions: time <= 12.0 min, TDE = time-dependent effect
Cell membrane [16] = assay: Disruption of inner membrane integrity in Pseudomonas aeruginosa ATCC 27853 assessed as increase in fluorescence intensity measured after 8 hrs; format: subcellular
Cell membrane [17] = assay: Disruption of inner membrane integrity in Pseudomonas aeruginosa ATCC 27853 assessed as increase in red fluorescence intensity at 8 times MIC measured after 10 to 40 mins by propidium iodide staining based analysis; format: subcellular; conditions: time 10-40 min
Cell membrane [18] = assay: Disruption of cell membrane integrity in Pseudomonas aeruginosa ATCC 27853 assessed as increase in protein leakage by Bradford assay; format: subcellular
Calf thymus DNA = assay: Binding affinity to calf thymus DNA at upto 18 micromol/ml by fluorescence spectroscopic method; format: nucleic-acid assay; conditions: Bos taurus; dose <= 18.0 µmol/ml

In the case of O=C(N/N=C/c1c(O)ccc2ccc(=O)oc12)c1ccncc1, the MIC (Staphylococcus aureus [1]) is reported as 4 mg/L (≈ 12.9 µM), the MIC (Staphylococcus aureus [2]) is reported as 1 mg/L (≈ 3.23 µM) and the MIC (Enterococcus faecalis) is reported as 8 mg/L (≈ 25.9 µM). The MIC (Staphylococcus aureus [3]) was 16 mg/L (≈ 51.7 µM), the MIC (Staphylococcus aureus [4]) was 8 mg/L (≈ 25.9 µM) and the MIC (Klebsiella pneumoniae) was 2 mg/L (≈ 6.47 µM). For the same molecule, the MIC (Pseudomonas aeruginosa [5]) was 8 mg/L (≈ 25.9 µM), the MIC (Pseudomonas aeruginosa [6]) was 0.5 mg/L (≈ 1.62 µM) and the MIC (Pseudomonas aeruginosa [7]) was 16 mg/L (≈ 51.7 µM). The MIC (Pseudomonas aeruginosa [8]) was 32 mg/L (≈ 103 µM), the MIC (Acinetobacter baumannii) was 1 mg/L (≈ 3.23 µM) and the MIC (Escherichia coli) was 8 mg/L (≈ 25.9 µM). The Activity (Pseudomonas aeruginosa [9]) was “Active”, the hemolysis at 8 h, 256 times MIC [10] was under 4% and the Activity (Erythrocyte) was “Non-Toxic”. For the same molecule, the Activity (NCM460 [11]) was over 80%, the Activity (NCM460 [12]) was “Non-Toxic” and the Activity (Cell membrane [13]) was “Tde”. The Activity (Cell membrane [14]) was “Dose-Dependent Effect”, the Activity (Cell membrane [15]) was “Tde” and the Activity (Cell membrane [16]) was “Dose-Dependent Effect”. The Activity (Cell membrane [17]) was “Active”, the Activity (Cell membrane [18]) was “Dose-Dependent Effect” and the Activity (Calf thymus DNA) was “Active”.
